Measured values from ChEMBL document CHEMBL1148281, “Carbonic anhydrase inhibitors: synthesis and topical intraocular pressure lowering effects of fluorine-containing inhibitors devoid of enhanced reactivity” (J Med Chem, 2004).

Assays:
Carbonic anhydrase 2 = Carbonic anhydrase 2 (Homo sapiens, UniProt P00918)
Description: In vitro inhibitory activity against human carbonic anhydrase II (hCAII)

Carbonic anhydrase 4 = target: T1, Carbonic anhydrase 4 (Bos taurus, UniProt Q95323)
T1 sequence (Q95323 whole entry): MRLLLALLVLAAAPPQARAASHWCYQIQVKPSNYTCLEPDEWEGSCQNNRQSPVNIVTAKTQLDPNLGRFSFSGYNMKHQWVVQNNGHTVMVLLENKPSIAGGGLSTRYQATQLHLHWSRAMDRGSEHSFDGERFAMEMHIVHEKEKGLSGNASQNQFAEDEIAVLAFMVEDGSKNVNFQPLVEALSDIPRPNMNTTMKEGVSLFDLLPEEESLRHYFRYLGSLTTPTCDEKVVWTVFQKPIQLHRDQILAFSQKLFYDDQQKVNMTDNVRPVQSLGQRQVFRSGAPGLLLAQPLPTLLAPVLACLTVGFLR
Description: In vitro inhibitory activity against bovine carbonic anhydrase IV (CAIV)

Carbonic anhydrase 1 = Carbonic anhydrase 1 (Homo sapiens, UniProt P00915)
Description: In vitro inhibitory activity against human carbonic anhydrase I (hCAI)

[1] = Reactivity against glutathione after 24 hours of incubation; type: functional
[2] = Reactivity against cysteine after 24 hours of incubation; type: functional

Sequence of Carbonic anhydrase 1 (P00915 whole entry): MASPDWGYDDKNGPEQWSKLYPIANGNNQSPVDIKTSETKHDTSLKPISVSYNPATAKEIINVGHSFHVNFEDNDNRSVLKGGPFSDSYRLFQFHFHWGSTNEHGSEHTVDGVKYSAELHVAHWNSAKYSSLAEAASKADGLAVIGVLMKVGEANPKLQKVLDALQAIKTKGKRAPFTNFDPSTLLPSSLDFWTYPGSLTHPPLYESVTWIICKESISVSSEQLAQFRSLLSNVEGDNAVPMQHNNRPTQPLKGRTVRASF

SMILES | Ki (Carbonic anhydrase 2) | Ki (Carbonic anhydrase 4) | Ki (Carbonic anhydrase 1) | Reactivity [1] | Reactivity [2]
NS(=O)(=O)c1ccc(NC(=O)Nc2c(F)c(F)c(F)c(F)c2F)c(Cl)c1 | 80 nM | 245 nM | 1300 nM |  | 
NS(=O)(=O)c1ccc(NC(=O)c2c(F)c(F)cc(F)c2F)c(Br)c1 |  | 50 nM |  |  | 
NS(=O)(=O)c1ccc(CCNS(=O)(=O)c2ccc(NC(=O)c3c(F)c(F)cc(F)c3F)cc2)cc1 |  | 49 nM |  |  | 
NS(=O)(=O)c1ccc(NS(=O)(=O)c2c(F)c(F)cc(F)c2F)c(Cl)c1 | 61 nM | 49 nM | 930 nM |  | 
NS(=O)(=O)c1ccc(NC(=O)Nc2c(F)c(F)c(F)c(F)c2F)cc1 |  | 21 nM |  | 0% | 0%
NS(=O)(=O)c1ccc(CCNC(=O)c2c(F)c(F)cc(F)c2F)cc1 |  | 94 nM |  |  | 
NS(=O)(=O)c1ccccc1NC(=O)Nc1c(F)c(F)c(F)c(F)c1F | 44 nM | 485 nM | 1750 nM |  | 
NS(=O)(=O)c1ccc(Nc2ccnc(NS(=O)(=O)c3c(F)c(F)cc(F)c3F)n2)cc1 | 13 nM | 21 nM | 320 nM |  | 
NS(=O)(=O)c1ccc(CCNS(=O)(=O)c2c(F)c(F)cc(F)c2F)cc1 |  | 76 nM |  |  | 
NS(=O)(=O)c1cc(S(N)(=O)=O)c(NC(=O)Nc2c(F)c(F)c(F)c(F)c2F)cc1Cl | 16 nM | 58 nM | 740 nM |  | 
NS(=O)(=O)c1nnc(NS(=O)(=O)c2c(F)c(F)cc(F)c2F)s1 |  | 15 nM |  | 0% | 0%
NS(=O)(=O)c1ccc(NC(=O)c2c(F)c(F)cc(F)c2F)c(Cl)c1 |  | 42 nM |  |  | 
NS(=O)(=O)c1ccc(CNC(=O)c2c(F)c(F)cc(F)c2F)cc1 |  | 120 nM |  |  | 
COc1ccc(NS(=O)(=O)c2c(F)c(F)c(F)c(F)c2F)cc1 |  |  |  | 96% | 98%
NS(=O)(=O)c1ccc(NC(=O)c2c(F)c(F)c(F)c(F)c2F)c(F)c1 |  |  |  | 49% | 55%
Cn1nc(S(N)(=O)=O)s/c1=N/C(=O)c1c(F)c(F)cc(F)c1F | 1.4 nM | 28 nM | 270 nM |  | 
NS(=O)(=O)c1ccc(CNS(=O)(=O)c2c(F)c(F)cc(F)c2F)cc1 |  | 135 nM |  |  | 

SMILES | Ki (Carbonic anhydrase 2) | Ki (Carbonic anhydrase 4) | Ki (Carbonic anhydrase 1) | Reactivity [1] | Reactivity [2]
NS(=O)(=O)c1ccc(NC(=O)Nc2c(F)c(F)c(F)c(F)c2F)c(F)c1 | 18 nM | 63 nM | 760 nM |  | 
NS(=O)(=O)c1ccc(NC(=O)Nc2c(F)c(F)c(F)c(F)c2F)c(Br)c1 | 95 nM | 360 nM | 1960 nM |  | 
NS(=O)(=O)c1ccc(NS(=O)(=O)c2c(F)c(F)cc(F)c2F)cc1 | 25 nM | 330 nM | 1300 nM |  | 
NS(=O)(=O)c1ccc(CNS(=O)(=O)c2ccc(NC(=O)c3c(F)c(F)cc(F)c3F)cc2)cc1 |  | 54 nM |  |  | 
NS(=O)(=O)c1cccc(NC(=O)c2c(F)c(F)cc(F)c2F)c1 |  | 430 nM |  |  | 
NS(=O)(=O)c1nnc(NS(=O)(=O)c2c(F)c(F)c(F)c(F)c2F)s1 |  |  |  | 68% | 76%
NS(=O)(=O)c1ccc(CNC(=O)Nc2c(F)c(F)c(F)c(F)c2F)cc1 | 15 nM | 50 nM | 1000 nM |  | 
NS(=O)(=O)c1ccc(NC(=O)c2c(F)c(F)cc(F)c2F)c(F)c1 |  | 31 nM |  | 0% | 0%
NS(=O)(=O)c1cccc(NC(=O)Nc2c(F)c(F)c(F)c(F)c2F)c1 |  | 430 nM |  |  | 
NS(=O)(=O)c1ccc(CCNC(=O)Nc2c(F)c(F)c(F)c(F)c2F)cc1 | 15 nM | 41 nM | 940 nM |  | 
NS(=O)(=O)c1ccc(NC(=O)c2c(F)c(F)cc(F)c2F)cc1 |  | 400 nM |  |  | 
NS(=O)(=O)c1nnc(NC(=O)Nc2c(F)c(F)c(F)c(F)c2F)s1 | 3.6 nM | 45 nM | 270 nM |  | 
NS(=O)(=O)c1ccccc1NC(=O)c1c(F)c(F)cc(F)c1F |  | 690 nM |  |  | 
NS(=O)(=O)c1ccc(NS(=O)(=O)c2ccc(NC(=O)c3c(F)c(F)cc(F)c3F)cc2)cc1 |  | 63 nM |  |  | 
NS(=O)(=O)c1nnc(NC(=O)c2c(F)c(F)cc(F)c2F)s1 |  | 24 nM |  |  | 
NS(=O)(=O)c1ccc(NS(=O)(=O)c2c(F)c(F)cc(F)c2F)c(F)c1 | 3.8 nM | 42 nM | 580 nM |  | 
